We go through ten compounds from patent US10206394B2, “Herbicidal compounds” (Syngenta Participations AG, priority 2014, dated 2019).

Where two headings read alike, the source gives them in different places.

Common to all, as to experiment: Glasshouse assay for herbicidal activity (pre- and post-emergence), percentage phytotoxicity
Format in all cases: in vivo

The subject of assay [1] is Alopecurus myosuroides (ALOMY). To be noted: Alopecurus myosuroides. In a few lines: (§1)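 Visually rated damage, 0–100%. PRE spray 1 d after sowing, scored 20 DAA; POST spray ~12 d, scored 15 DAA. Glasshouse at 65% humidity, 16 h day.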
A further assay relates to Lolium perenne (LOLPE). Conditions: Lolium perenne. The gist of the method: as §1
In a further assay the test system is Avena fatua (AVEFA). Conditions: Avena fatua. In a few lines:
as §1

Assay [2] concerns Echinochloa crus-galli (ECHCG). To be noted: Echinochloa crus-galli. The gist of the method:
as §1

Where [3] appears, read: post-emergence, 360 h, Rate 250 g/ha, post-emergence, assessed visually 15 DAA, 100%=total damage, 0%=no damage, read-out: Post-emergence herbicidal activity (percentage phytotoxicity) ALOMY POST.
Where [4] appears, read: pre-emergence, 480 h, Rate 250 g/ha, pre-emergence, assessed visually 20 DAA, 100%=total damage, 0%=no damage, read-out: Pre-emergence herbicidal activity (percentage phytotoxicity) ALOMY PRE.
[5] abbreviates: post-emergence, 360 h, Rate 250 g/ha, post-emergence, assessed visually 15 DAA, 100%=total damage, 0%=no damage, read-out: Post-emergence herbicidal activity (percentage phytotoxicity) LOLPE POST.
Where [6] appears, read: pre-emergence, 480 h, Rate 250 g/ha, pre-emergence, assessed visually 20 DAA, 100%=total damage, 0%=no damage, read-out: Pre-emergence herbicidal activity (percentage phytotoxicity) LOLPE PRE.
Where [7] appears, read: post-emergence, 360 h, Rate 250 g/ha, post-emergence, assessed visually 15 DAA, 100%=total damage, 0%=no damage, read-out: Post-emergence herbicidal activity (percentage phytotoxicity) AVEFA POST.
[8] abbreviates: pre-emergence, 480 h, Rate 250 g/ha, pre-emergence, assessed visually 20 DAA, 100%=total damage, 0%=no damage, read-out: Pre-emergence herbicidal activity (percentage phytotoxicity) AVEFA PRE.
Where [9] appears, read: post-emergence, 360 h, Rate 250 g/ha, post-emergence, assessed visually 15 DAA, 100%=total damage, 0%=no damage, read-out: Post-emergence herbicidal activity (percentage phytotoxicity) ECHCG POST.
The mark [10] stands for this setting: pre-emergence, 480 h, Rate 250 g/ha, pre-emergence, assessed visually 20 DAA, 100%=total damage, 0%=no damage, read-out: Pre-emergence herbicidal activity (percentage phytotoxicity) ECHCG PRE.
The mark [11] stands for this setting: post-emergence, 360 h, 250 g/ha, post-emergence, 15 DAA, visual assessment (100%=total damage, 0%=no damage), read-out: Post-emergence herbicidal activity (percentage phytotoxicity) ALOMY POST.
Setting [12] is: pre-emergence, 480 h, 250 g/ha, pre-emergence, 20 DAA, visual assessment (100%=total damage, 0%=no damage), read-out: Pre-emergence herbicidal activity (percentage phytotoxicity) ALOMY PRE.
Where [13] appears, read: post-emergence, 360 h, 250 g/ha, post-emergence, 15 DAA, visual assessment (100%=total damage, 0%=no damage), read-out: Post-emergence herbicidal activity (percentage phytotoxicity) LOLPE POST.
Setting [14] is: pre-emergence, 480 h, 250 g/ha, pre-emergence, 20 DAA, visual assessment (100%=total damage, 0%=no damage), read-out: Pre-emergence herbicidal activity (percentage phytotoxicity) LOLPE PRE.
Where [15] appears, read: post-emergence, 360 h, 250 g/ha, post-emergence, 15 DAA, visual assessment (100%=total damage, 0%=no damage), read-out: Post-emergence herbicidal activity (percentage phytotoxicity) AVEFA POST.
[16] abbreviates: pre-emergence, 480 h, 250 g/ha, pre-emergence, 20 DAA, visual assessment (100%=total damage, 0%=no damage), read-out: Pre-emergence herbicidal activity (percentage phytotoxicity) AVEFA PRE.
The mark [17] stands for this setting: post-emergence, 360 h, 250 g/ha, post-emergence, 15 DAA, visual assessment (100%=total damage, 0%=no damage), read-out: Post-emergence herbicidal activity (percentage phytotoxicity) ECHCG POST.
Where [18] appears, read: pre-emergence, 480 h, 250 g/ha, pre-emergence, 20 DAA, visual assessment (100%=total damage, 0%=no damage), read-out: Pre-emergence herbicidal activity (percentage phytotoxicity) ECHCG PRE.
The mark [19] stands for this setting: post-emergence, 360 h, POST-emergence, rate 250 g/ha, visual score 15 DAA (100%=total damage, 0%=no damage), read-out: Post-emergence herbicidal activity (percentage phytotoxicity) ALOMY POST.
Where [20] appears, read: pre-emergence, 480 h, PRE-emergence, rate 250 g/ha, visual score 20 DAA (100%=total damage, 0%=no damage), read-out: Pre-emergence herbicidal activity (percentage phytotoxicity) ALOMY PRE.
Setting [21] is: post-emergence, 360 h, POST-emergence, rate 250 g/ha, visual score 15 DAA (100%=total damage, 0%=no damage), read-out: Post-emergence herbicidal activity (percentage phytotoxicity) LOLPE POST.
[22] abbreviates: pre-emergence, 480 h, PRE-emergence, rate 250 g/ha, visual score 20 DAA (100%=total damage, 0%=no damage), read-out: Pre-emergence herbicidal activity (percentage phytotoxicity) LOLPE PRE.
Setting [23] is: post-emergence, 360 h, POST-emergence, rate 250 g/ha, visual score 15 DAA (100%=total damage, 0%=no damage), read-out: Post-emergence herbicidal activity (percentage phytotoxicity) AVEFA POST.
Where [24] appears, read: pre-emergence, 480 h, PRE-emergence, rate 250 g/ha, visual score 20 DAA (100%=total damage, 0%=no damage), read-out: Pre-emergence herbicidal activity (percentage phytotoxicity) AVEFA PRE.
The mark [25] stands for this setting: post-emergence, 360 h, POST-emergence, rate 250 g/ha, visual score 15 DAA (100%=total damage, 0%=no damage), read-out: Post-emergence herbicidal activity (percentage phytotoxicity) ECHCG POST.
[26] abbreviates: pre-emergence, 480 h, PRE-emergence, rate 250 g/ha, visual score 20 DAA (100%=total damage, 0%=no damage), read-out: Pre-emergence herbicidal activity (percentage phytotoxicity) ECHCG PRE.

As for `Cc1cc(-c2ncc(F)cn2)cc(C)c1C1C(=O)CC(CC(=O)NCC(C)(C)C)C1=O` (centres unmarked) [Compound B109], the pest or weed control at 63 g/ha amounted to 20% in assay [1] (post-emergence, 360 h, post-emergence, 15 DAA, read-out: Post-emergence herbicidal activity (percentage phytotoxicity) ALOMY POST); 70% in assay [1] (pre-emergence, 480 h, pre-emergence, 20 DAA, read-out: Pre-emergence herbicidal activity (percentage phytotoxicity) ALOMY PRE); 70% in the assay on Lolium perenne (LOLPE) (post-emergence, 360 h, post-emergence, 15 DAA, read-out: Post-emergence herbicidal activity (percentage phytotoxicity) LOLPE POST); 60% with Lolium perenne (LOLPE) (pre-emergence, 480 h, pre-emergence, 20 DAA, read-out: Pre-emergence herbicidal activity (percentage phytotoxicity) LOLPE PRE); 80% in the assay with Avena fatua (AVEFA) (post-emergence, 360 h, post-emergence, 15 DAA, read-out: Post-emergence herbicidal activity (percentage phytotoxicity) AVEFA POST); 100% in the assay with Avena fatua (AVEFA) (pre-emergence, 480 h, pre-emergence, 20 DAA, read-out: Pre-emergence herbicidal activity (percentage phytotoxicity) AVEFA PRE). The pest or weed control at 63 g/ha in assay [2] (post-emergence, 360 h, post-emergence, 15 DAA, read-out: Post-emergence herbicidal activity (percentage phytotoxicity) ECHCG POST) was 90%; in assay [2] (pre-emergence, 480 h, pre-emergence, 20 DAA, read-out: Pre-emergence herbicidal activity (percentage phytotoxicity) ECHCG PRE), 80%.
Regarding `Cc1cc(-c2ncc(Cl)cc2F)cc(C)c1C1C(=O)CC(CC(=O)NCc2ccsc2Br)C1=O` (centres unmarked) [Compound A127], the pest or weed control at 250 g/ha is 70% in assay [1] (setting [3]); 0% in assay [1] (setting [4]); 90% with Lolium perenne (LOLPE) (setting [5]); 60% with Lolium perenne (LOLPE) (setting [6]); 70% in the assay on Avena fatua (AVEFA) (setting [7]); 20% in the assay with Avena fatua (AVEFA) (setting [8]). Moreover, the pest or weed control at 250 g/ha came to 100% in assay [2] (setting [9]) and 60% in assay [2] (setting [10]).
Regarding `CCCCNC(=O)CC1CC(=O)C(c2c(C)cc(-c3ncc(F)cn3)cc2C)C1=O` (centres unmarked) [Compound B111], the pest or weed control at 250 g/ha in assay [1] (setting [11]) amounted to 100%; in assay [1] (setting [12]) it was 70%; with Lolium perenne (LOLPE) (setting [13]), 100%; in the assay on Lolium perenne (LOLPE) (setting [14]), 100%; with Avena fatua (AVEFA) (setting [15]), 100%; in the assay with Avena fatua (AVEFA) (setting [16]) it was 90%. Further, the pest or weed control at 250 g/ha in assay [2] (setting [17]) and in assay [2] (setting [18]) was 100% each time.
For the compound `CCN(C)C(=O)CC1CC(=O)C(c2c(C)cc(C)cc2C)C1=O` (centres unmarked) [Compound A160], the pest or weed control at 250 g/ha in assay [1] (setting [3]) is 70%; in assay [1] (setting [4]), 70%; in the assay with Lolium perenne (LOLPE) (setting [5]) it was 100%; with Lolium perenne (LOLPE) (setting [6]) it was 100%; in the assay on Avena fatua (AVEFA) (setting [7]), 90%; with Avena fatua (AVEFA) (setting [8]), 80%. Further, the pest or weed control at 250 g/ha was found to be 90% in assay [2] (setting [9]) and 100% in assay [2] (setting [10]).
For the compound `CCc1cc(OCC(F)(F)F)cc(C)c1C1C(=O)CC(CC(=O)NCc2cccc(F)c2)C1=O` (centres unmarked) [Compound B214], the pest or weed control at 250 g/ha in assay [1] (setting [19]) is 100%; in assay [1] (setting [20]) it was 100%; in the assay with Lolium perenne (LOLPE) (setting [21]), 100%; in the assay on Lolium perenne (LOLPE) (setting [22]) it was 90%; in the assay with Avena fatua (AVEFA) (setting [23]) it was 100%; in the assay on Avena fatua (AVEFA) (setting [24]), 90%. For the same compound, the pest or weed control at 250 g/ha in assay [2] (setting [25]) and in assay [2] (setting [26]) was 100% in each case.
As for `CC#Cc1cc(C)c(C2C(=O)CC(CC(=O)NC(C)(C)C)C2=O)c(C)c1` (centres unmarked) [Compound A31], the pest or weed control at 250 g/ha was found to be 100% in assay [1] (setting [3]); 100% in assay [1] (setting [4]); 100% in the assay on Lolium perenne (LOLPE) (setting [5]); 100% with Lolium perenne (LOLPE) (setting [6]); 100% in the assay with Avena fatua (AVEFA) (setting [7]); 90% in the assay with Avena fatua (AVEFA) (setting [8]). For the same compound, the pest or weed control at 250 g/ha in assay [2] (setting [9]) and in assay [2] (setting [10]) was 100% throughout.
`Cc1cc(OCC(F)(F)F)cc(C)c1C1C(=O)CC(CC(N)=O)C1=O` (centres unmarked) [Compound B154]: the pest or weed control at 250 g/ha in assay [1] (setting [11]) was 70%; in assay [1] (setting [12]), 90%; in the assay with Lolium perenne (LOLPE) (setting [13]), 70%; with Lolium perenne (LOLPE) (setting [14]), 70%; with Avena fatua (AVEFA) (setting [15]), 70%; with Avena fatua (AVEFA) (setting [16]), 50%. The pest or weed control at 250 g/ha in assay [2] (setting [17]) stood at 90%; in assay [2] (setting [18]), 80%.
With `CC#Cc1cc(C)c(C2C(=O)CC(CC(=O)NCCOC)C2=O)c(CC)c1` (centres unmarked) [Compound A49], the pest or weed control at 250 g/ha (in assay [1] (setting [3]); in assay [1] (setting [4]); in the assay with Lolium perenne (LOLPE) (setting [5]); in the assay with Lolium perenne (LOLPE) (setting [6]); in the assay on Avena fatua (AVEFA) (setting [7]); in the assay with Avena fatua (AVEFA) (setting [8])) was 100% each time. The pest or weed control at 250 g/ha in assay [2] (setting [9]) and in assay [2] (setting [10]) was 100% throughout.
Consider `Cc1cc(-c2ncc(Cl)cc2F)cc(C)c1C1C(=O)CC(CC(=O)NC2CCCC2)C1=O` (centres unmarked) [Compound B125], for which the pest or weed control at 250 g/ha in assay [1] (setting [11]) was 90%; in assay [1] (setting [12]) it was 80%; with Lolium perenne (LOLPE) (setting [13]) it was 100%; with Lolium perenne (LOLPE) (setting [14]), 100%; in the assay with Avena fatua (AVEFA) (setting [15]), 100%; with Avena fatua (AVEFA) (setting [16]), 40%. In addition, the pest or weed control at 250 g/ha in assay [2] (setting [17]) and in assay [2] (setting [18]) was 100% each time.
As to `Cc1cc(-c2ncc(F)cn2)cc(C)c1C1C(=O)CC(CC(=O)N(C)C)C1=O` (centres unmarked) [Compound B279], the pest or weed control at 250 g/ha (in assay [1] (setting [19]); in assay [1] (setting [20]); in the assay on Lolium perenne (LOLPE) (setting [21]); in the assay with Lolium perenne (LOLPE) (setting [22]); in the assay with Avena fatua (AVEFA) (setting [23]); with Avena fatua (AVEFA) (setting [24])) was 100% throughout. Also, the pest or weed control at 250 g/ha in assay [2] (setting [25]) and in assay [2] (setting [26]) was 100% throughout.
